The results in this text go back to a melting point compilation (Tetko et al.; mined from patent text by program, amines drawn as free bases though some values may be those of a salt).

`COC(=O)C1=C(C)Nc2ccccc2SC1c1ccc([N+](=O)[O-])cc1` (centres undefined): the melting point (in general, the temperature, or range, at which the solid turns liquid) was 150 to 152 °C.

As for `CCc1cn(C2CC(O)C(CNC(=O)Cc3ccccc3N)O2)c(=O)[nH]c1=O` (centres undefined), the melting point was 195 to 196 °C.

With `CC(=O)c1ccc(COC(=O)N2CCN(CC3(C)Cn4cc([N+](=O)[O-])nc4O3)CC2)cc1` (centres undefined), the melting point is 101 to 102 °C.

`O=C(O)c1cccnc1C1=NC(=O)C2(CCCCC2)N1`: the melting point was 186 to 189 °C.

In turn, `CCOC(=O)c1nn(-c2ccc(Cl)cc2Cl)c(-c2ccc(Br)cc2)c1CC` yielded a melting point of 108 °C.

In turn, `ClCc1c(-c2ccccc2)c(-c2ccccc2)nn1-c1ccccc1` registered a melting point of 122 °C.

`Cc1ccsc1C(Cc1cc(Br)ccc1N)N(C)C` (centres undefined): the melting point lay within 96 to 98 °C.

The compound `Cc1[nH]c(Cl)c(C#N)c1SC(F)(Cl)Cl` registered a melting point of 187 °C.

With `Cc1c(CC(=O)O)c2cc(OCc3ccccn3)ccc2n1Cc1ccc(Cl)cc1`, the melting point fell in the range of 231 to 233 °C.

Compound `O[C@H](CCc1cccnc1)COc1ccc(-c2nnco2)cc1` showed a melting point of 130 to 133 °C.

In turn, `O=C(O)Cc1ccc(-c2ccc(C(F)(F)F)cc2)cc1` registered a melting point of 158 to 160 °C.

As for `COC(=O)c1cccc2c1CCC2C#N` (centres undefined), the melting point fell in the range of 76.5 to 77.5 °C.

`CCC(C)c1cccc(C(C)CC)c1C(=O)O` (centres undefined) returned a melting point of 125 to 126 °C.

As to `COC(=O)c1nn(Cc2ccc(Cl)cc2Cl)c2ccccc12`, the melting point fell in the range of 168 to 170 °C.

Consider `Cc1cccc(C(=O)n2c3c(c4ccccc42)CC(C(=O)O)CC3)c1` (centres undefined), for which the melting point was in the range of 180 to 182 °C.

Compound `N#Cc1cc(N)ccc1N1CCN(C2CCSCC2)CC1` returned a melting point of 109 °C.

`Nc1ccc(-c2cc(C(F)(F)F)nc(-c3ccc(C(F)(F)F)cc3)n2)cc1` had a melting point of 162 °C.

Consider `COC(=O)c1ccccc1S(=O)(=O)N1CCC2(C=Cc3ccccc32)CC1`, for which the melting point fell in the range of 150 to 152 °C.

With `COc1cc(CC(C#N)(C=O)C(OC)OC)cc(OC)c1OC` (centres undefined), the melting point is 118 to 122 °C.

`O=C(CCc1nc(-c2ccccn2)no1)NC1CCN(Cc2ccc(Cl)c(F)c2)CC1` returned a melting point of 132 °C.

For the compound `O=C(O)c1ccc(O)c(NC(=O)C(CS)Cc2ccccc2)c1` (centres undefined), the melting point lay in the range of 226 to 227 °C.

`CC(C)C(=O)N(C(=O)N(C)C)c1snc(C(C)C)c1C#N` came in with a melting point of 127 to 129 °C.

`CCCc1nc2c(N)nc3cccnc3c2n1CC1(O)CCC1` gave a melting point of 226 to 227 °C.

Regarding `O=C(O)C1=Cc2cc(Cl)c(Cl)cc2OC1C(F)(F)F` (centres undefined), the melting point fell in the range of 196 to 198 °C.

`O=S(=O)(c1ccc(S(=O)(=O)C2CCCCC2)nc1)C1CCCCC1`: the melting point was determined as 213 °C.

Turning to `CC(=O)CCc1ccc2c(c1)Cc1cc(N)ccc1-2`, the melting point was 116 to 117 °C.

The compound `Cc1cccc2c(Nc3cc(CO)cc(NC(=O)Nc4ccc(N(CCCl)CCCl)cc4)c3)c3ccccc3nc12` yielded a melting point of 251 to 252 °C.

In turn, `Oc1ccc(CCN2CCC(=C3c4sccc4CCn4ccnc43)CC2)cc1` yielded a melting point greater than 200 °C.

`CCN(CC)CCNc1ccc(NCCN(CC)CC)c2c1C(=O)c1ccccc1C2=O` showed a melting point of 109 °C.

For the compound `CC(CCC(=O)OC1CCCCC1)C1CC=C2C3=C(CCC21C)C1(C)CCC(O)C(C)(C)C1CC3` (centres undefined), the melting point is 130 to 132 °C.

Consider `CNC(=O)C(CC1CCCCC1)NC(=O)Nc1n[nH]c(=S)s1` (centres undefined), for which the melting point was in the range of 246 to 247 °C.

`CCCN(CCC)C(=O)C1Cc2ccccc2N1c1nc(-c2ccccc2)nc(C)c1C` (centres undefined) came in with a melting point of 167 to 168 °C.

As to `CCCCC=C1SC(=O)N(CCCCOc2cccn3ccnc23)C1=O`, the melting point was 64 to 65 °C.

Regarding `Nc1ncnc2ncn(Cc3ccccc3)c12`, the melting point is 252 to 255 °C.

With `CC1(C)C(Br)C(=O)C1CC(Cl)(Cl)Cl` (centres undefined), the melting point came to 56 °C.

Turning to `O=C(O)[C@H](CC1CCCCC1)n1cccc1`, the melting point lay in the range of 78 to 80 °C.

Regarding `Cc1cccc(C)c1NC(=O)CCCCCc1cccnc1`, the melting point fell in the range of 98 to 100 °C.

`O=C(C=Cc1ccc(O)cc1)N1CCc2c([nH]c3ccccc23)C1c1ccc2c(c1)OCO2` (centres undefined) showed a melting point of 175 °C.

In the case of `NC(=O)CNC(=S)Nc1ccccc1`, the melting point lay within 150 to 152 °C.

Consider `CCC[C@H]1CC[C@H](c2ccc(CCc3ccc(C#N)cc3)cc2)CC1`, for which the melting point was 36 °C.

`COc1ccc(NC(=O)CN2C(=O)c3ccccc3C2=O)c(OC)c1COc1cccc2ccc(C)nc12`: the melting point was 229 to 231 °C.

Compound `Cc1c(-c2ccc(O)cc2)n(Cc2ccc(OCCCN3CCCCC3)cc2)c2ccc(O)cc12` had a melting point of 125 to 130 °C.

As to `CCc1cc2c(s1)-n1c(C)nnc1C(CCCC(=O)O)N=C2c1ccc(Cl)cc1` (centres undefined), the melting point fell in the range of 185 to 187 °C.

Regarding `CN1CCC(Oc2ccc([N+](=O)[O-])cc2)(c2ccccc2)CC1`, the melting point lay within 136 to 138 °C.

`CCCOc1ccc(S(=O)(=O)N2CCCC(C(=O)OCC)C2)cc1-c1nc2cc(Cl)c([N+](=O)[O-])cc2c(=O)[nH]1` (centres undefined): the melting point lay within 196 to 197 °C.

For `NC(=O)c1coc2c1C(=O)CC(c1ccccc1)C2` (centres undefined), the melting point lay in the range of 252 to 253 °C.

In the case of `O=C(CCl)c1ccc2c(c1)Cc1cc(C(=O)CCl)ccc1O2`, the melting point was 200 to 201 °C.

Regarding `Cc1nnc2c(NC3CCCC3)nc3ccccc3n12`, the melting point is 196 to 198 °C.

`COC(=O)Cc1ccc(C(=C2CC(C)(C)CC(C)(C)C2)c2ccc(O)cc2)cc1` showed a melting point of 154 to 155 °C.

Regarding `CCNC(=O)c1ccc(-c2ccc3nnn(Cc4cc5cccnc5cc4F)c3n2)cc1Cl`, the melting point lay in the range of 197 to 199 °C.

For the compound `O=C1Nc2ccc(Cl)cc2C1(O)c1ccccc1C(F)(F)F` (centres undefined), the melting point was 205 to 208 °C.

On to `CC(C)n1nc(-c2sc(NC(=O)c3ccc(CN(C)CCc4ccccn4)cc3)nc2-c2ccccc2)ccc1=O`, for which the melting point was 172 to 174 °C.

`FC(F)(F)Sc1ccc(-c2ccc(Cl)cc2)[nH]1` had a melting point of 34 to 39 °C.

Consider `Cc1c(NC(=O)c2ccc(OCc3ccc(F)cc3)cc2)ccc2cc(CN3CCCC3)cnc12`, for which the melting point was 177 to 178 °C.

Compound `C[C@@H](Nc1ncnc2[nH]c(-c3ccc(CNC(=O)CN4CCCCC4)cc3)cc12)c1ccccc1` gave a melting point of 194 to 196 °C.

The compound `CCOC(=O)C1CSCCN1C(=O)Nc1ccc(Cl)cc1` (centres undefined) returned a melting point of 152 to 154 °C.

Take `COc1cc(C=C2CCCOC2CN)c([N+](=O)[O-])cc1OC` (centres undefined): the melting point is 89 to 96 °C.

Take `Fc1ccc(N2CCN(Cc3cn4cc(Br)ccc4n3)CC2)cc1`: the melting point is 110 to 112 °C.

As to `COC(=O)c1ccc(NC(C)=O)c(NC(=O)COC(C)=O)c1`, the melting point was in the range of 182 to 186 °C.

`CC(C)(C)OC(=O)C1CCCN1C(=O)NN` (centres undefined) showed a melting point of 83 to 84 °C.

Regarding `N#Cc1c(N)n[nH]c1N1CCN(Cc2ccccc2)CC1`, the melting point lay within 157 to 158 °C.

The compound `CCCCn1cc(C2CCN(CCOc3ccccc3C(=O)O)CC2)c2ccncc21` yielded a melting point of 158 to 159 °C.

`O=C(O)CCCN(C(=O)c1ccc(F)cc1)c1ccccc1-c1ccccc1` displayed a melting point of 120 to 122 °C.

In the case of `O=C(NCCN1CCCC1)c1cccc(-c2cccc(OCCc3ccc(Cl)cc3Cl)n2)c1`, the melting point is 115 to 116 °C.

In turn, `Cc1cccc(Nc2ccccc2C(=O)NO)c1C` yielded a melting point of 124 to 125 °C.

As for `C=CS(=O)(=O)CCCS(=O)(=O)C=C`, the melting point fell in the range of 60 to 63 °C.

The compound `NC(=O)c1ccc(F)c2c1CC(N(CCCCc1c[nH]c3ccc(F)cc13)C1CCC1)CO2` (centres undefined) yielded a melting point of 122 °C.

For `COC(=S)c1ccc2ccc(C(=O)N(C)C)cc2c1`, the melting point lay in the range of 123 to 124 °C.

As for `CC(C)c1ccc(C2(O)C(=O)c3ccccc3C2=O)c(OC(=O)C=Cc2ccccc2)c1`, the melting point was in the range of 95 to 97 °C.

With `O=C(O)CCC(=O)c1ccc(CCNS(=O)(=O)c2ccc(Cl)cc2)cc1`, the melting point amounted to 152 °C.

`Cn1c(=O)[nH]c2nc3ccc(OCCCC(=O)N4CCCCC4)cc3cc21`: the melting point was in the range of 215 to 217 °C.

`CCOC(=O)C(=CNc1ncccc1C)C(=O)OCC` came in with a melting point of 65 to 67 °C.

On to `N#Cc1cc(Cn2cncn2)cc(-c2ccc(O)cc2)c1`, for which the melting point fell in the range of 186 to 187 °C.

`CCSC1=NCC(O)CN1` (centres undefined): the melting point was 106 to 108 °C.

Turning to `Cn1cnnc1C(N)(c1ccc(C#N)cc1)c1ccc2c(c1)c(-c1cccc(Cl)c1)nc1nnnn12` (centres undefined), the melting point came to 194 °C.

In turn, `CCCCCCCCCCCCCCCCCCOc1cc2ccccc2c(N=Nc2ccc(OC)cc2)c1O` gave a melting point of 95 to 97 °C.

In turn, `CC(=O)Nc1ccc2c(c1)CCC(=CN(C)C)C2=O` came in with a melting point of 207 to 210 °C.

`CCC(CC)(CC(=O)Nc1cccc(/C=C/c2cccc(COCCCCc3ccc(C)cc3)n2)c1)C(=O)O` had a melting point of 114 to 116 °C.

Compound `COc1ccnc(CCc2nc3cc(-c4ccc(S(=O)(=O)N5CCN(Cc6ccccc6)CC5)cc4)cnc3[nH]2)c1` registered a melting point of 160 to 162 °C.

For the compound `Clc1ccc(N2CCN(Cc3n[nH]c4c(Cl)cccc34)CC2)cc1`, the melting point is 152 to 154 °C.

As for `CC(=O)CCn1nc(C)c(-c2ccc3c(c2)NC(=O)CO3)c1-c1ccc(F)cc1`, the melting point fell in the range of 148 to 151 °C.

For `COc1cc(F)ccc1CCN1c2nc(-c3ccncn3)cc(=O)n2CCC1(C)C`, the melting point was 196 to 198 °C.

In turn, `Cc1ccc(-c2c(Cl)nc3ncnn3c2NC2CCCC2)cc1` showed a melting point of 158 °C.

Consider `Cc1ccc(-c2c(C)ccn2-c2ccc(S(C)(=O)=O)cc2)cc1`, for which the melting point fell in the range of 158 to 160 °C.

For `O=C1SC2CCN(Cc3ccccc3Cl)CC2=C1O` (centres undefined), the melting point was 121 °C.

`O=[N+]([O-])c1cnc(Nc2ccccc2F)c([N+](=O)[O-])c1` showed a melting point of 159 to 161 °C.

As to `CCn1c(=O)c(NC(=O)Nc2ccc(F)cc2F)c(-c2ccccc2Cl)c2cc(C)cc(C)c21`, the melting point is 186 to 188 °C.

In turn, `Clc1nc2ccccc2c2[nH]cnc12` displayed a melting point of 257 to 258 °C.

Compound `O=C1COCCN1c1ccc(NC[C@H](O)CCl)cc1` came in with a melting point of 138 to 139 °C.
